{"source": "ChEMBL document CHEMBL3228008", "about": "“Synthesis and some pharmacological properties of 8-L-methionine-oxytocin” (1979)", "key": {"Rattus norvegicus [1]": {"system": "Rattus norvegicus", "assay": "Pressor activity in anesthetized rat", "format": "functional"}, "Rattus norvegicus [2]": {"system": "Rattus norvegicus", "assay": "Antidiuretic activity in anesthetized rat", "format": "functional, Urine"}, "Gallus gallus": {"system": "Gallus gallus", "assay": "Avian vasodepressor activity in conscious chicken", "format": "functional"}, "[3]": {"assay": "Oxytocic activity in virgin rat uterine horns", "format": "functional"}}, "note": "Where a SMILES comes first, the peptide text is derived from it. Bridges are numbered along the chain shown (N, C = ends).", "data": [{"smiles": "CC[C@H](C)[C@@H]1NC(=O)[C@H](Cc2ccc(O)cc2)NC(=O)[C@@H](N)CSSC[C@@H](C(=O)N2CCC[C@H]2C(=O)N[C@@H](CCSC)C(=O)NCC(N)=O)NC(=O)[C@H](CC(N)=O)NC(=O)[C@H](CCC(N)=O)NC1=O", "note": "(H-CYIQNCPMG-NH2; disulfide 1-6)", "values": [{"measurement": "Activity", "setting": "Rattus norvegicus [1]", "result": 27, "unit": "U/mg"}, {"measurement": "Activity", "setting": "Rattus norvegicus [2]", "result": 0.4, "unit": "U/mg"}, {"measurement": "Activity", "setting": "Gallus gallus", "result": 193, "unit": "U/mg"}, {"measurement": "Activity", "setting": "[3]", "result": 200, "unit": "U/mg"}]}]}
